Data taken from patent publication US10207993B2 (priority 2014, dated 2019).

tested on: H37Rv; experiment: microbe, parasite or virus in culture; assay type: cell-based, M. tuberculosis; conditions: 0.5 µM

Compound | H37Rv % Inhibition at 500 nM [%]
CN1CCCC(NC(=O)C(O)(c2ccccc2)c2ccccc2)C1 (stereo in doubt) [Compound 1032, (R)-2-Hydroxy-N-(1-methylpiperidin-3-yl)-2,2-diphenylacetamide] | 72
CN1CCCC(NC(=O)[C@H](O)c2ccccc2)C1 (stereo in doubt) [Compound 1045, (R)-2-Hydroxy-N-((S)-1-methylpiperidin-3-yl)-2-phenylacetamide] | 66
CN1CCC(OC(=O)C(O)c2ccccc2)CC1 (stereo in doubt) [Compound 1047, (S)-1-Methylpiperidin-4-yl 2-hydroxy-2-phenylacetate] | 68
O=C(NC1CCN(Cc2ccccc2)CC1)C(O)(c1ccccc1)c1ccccc1 [Compound 1021, N-(1-Benzylpiperidin-4-yl)-2-hydroxy-2,2-diphenylacetamide] | 74
O=C(Nc1cccnc1)[C@H](O)c1ccccc1 [Compound 1055, (R)-2-Hydroxy-2-phenyl-N-(pyridin-3-yl)acetamide] | 52

same assay, conditions: Mycobacterium tuberculosis, H37RV, THP-1, 90 h, read-out: H37Rv % Inhibition at 500 nM

Compound | inhibition at 0.5 µM [%]
O=C(NC1CCCN(Cc2ccccc2)C1)C(O)(c1ccccc1)c1ccccc1 (stereo in doubt) [Compound 1029, (R)-N-(1-Benzylpiperidin-3-yl)-2-hydroxy-2,2-diphenylacetamide] | 61
O=C(Nc1cccnc1)C(O)c1ccccc1 (stereo in doubt) [Compound 1046, (S)-2-Hydroxy-2-phenyl-N-(pyridin-3-yl)acetamide] | 56
COC(C(=O)OC1CCCN(C)C1)c1ccccc1 (stereo in doubt) [Compound 1059, (S)-(R)-1-Methylpiperidin-3-yl 2-methoxy-2-phenylacetate] | 74
C[N+]12CCC(CC1)C(OC(=O)C(O)(c1ccccc1)c1ccccc1)C2 (stereo not shown) [Compound 1008, 3-(2-Hydroxy-2,2-diphenylacetoxy)-1-methylquinuclidin-1-ium] | 42
O=C(NC1CCCNC1)C(O)(c1ccccc1)c1ccccc1 (stereo not shown) [Compound 1016, 2-Hydroxy-2,2-diphenyl-N-(piperidin-3-yl)acetamide] | 65
O=C(NC1CCN(Cc2ccccc2)CC1)C(O)(c1ccccc1)c1ccccc1 [Compound 1017, N-(1-Benzylpiperidin-4-yl)-2-hydroxy-2,2-diphenylacetamide] | 75
CN1CCCC(NC(=O)C(O)(c2ccccc2)c2ccccc2)C1 (stereo not shown) [Compound 1020, 2-Hydroxy-N-(1-methylpiperidin-3-yl)-2,2-diphenylacetamide] | 64
O=C(NC1CN(Cc2ccccc2)C1)C(O)(c1ccccc1)c1ccccc1 [Compound 1022, N-(1-Benzylazetidin-3-yl)-2-hydroxy-2,2-diphenylacetamide] | 75
O=C(N[C@@H]1CCCN(Cc2ccccc2)C1)C(O)(c1ccccc1)c1ccccc1 [Compound 1028, (R)-N-(1-Benzylpiperidin-3-yl)-2-hydroxy-2,2-diphenylacetamide] | 77
O=C(NC1CCNCC1)C(O)(c1ccccc1)c1ccccc1 [Compound 1030, 2-Hydroxy-2,2-diphenyl-N-(piperidin-4-yl)acetamide] | 52
CN1CCC[C@H](NC(=O)C(O)(c2ccccc2)c2ccccc2)C1 [Compound 1031, (S)-2-Hydroxy-N-(1-methylpiperidin-3-yl)-2,2-diphenylacetamide] | 74
O=C(N[C@@H]1CCCN(Cc2ccccc2)C1)C(c1ccccc1)c1ccccc1 [Compound 1034, (R)-N-(1-Benzylpiperidin-3-yl)-2,2-diphenylacetamide] | 64
O=C(N[C@H]1CCCN(Cc2ccccc2)C1)C(O)c1ccccc1 (stereo partly drawn) [Compound 1035, N-((S)-1-Benzylpiperidin-3-yl)-2-hydroxy-2-phenylacetamide] | 62
CC(O)(C(=O)N[C@@H]1CCCN(Cc2ccccc2)C1)c1ccccc1 (stereo partly drawn) [Compound 1036, N-((R)-1-Benzylpiperidin-3-yl)-2 hydroxy-2-phenylpropanamide] | 58
CN1CCC[C@@H](OC(=O)[C@H](O)c2ccccc2)C1 [Compound 1037, (R)-(R)-1-Methylpiperidin-3-yl 2-hydroxy-2-phenylacetate] | 40
CN1CCC[C@H](OC(=O)[C@H](O)c2ccccc2)C1 [Compound 1038] | 56

Compound | inhibition at 0.5 µM [%]
CN1CCC[C@@H](OC(=O)[C@@H](O)c2ccccc2)C1 [Compound 1039] | 61
CN1CCC[C@H](OC(=O)[C@@H](O)c2ccccc2)C1 [Compound 1040, (S)-(S)-1-Methylpiperidin-3-yl 2-hydroxy-2-phenylacetate] | 79
CN1CCC(OC(=O)[C@H](O)c2ccccc2)CC1 [Compound 1041, (R)-1-Methylpiperidin-4-yl 2-hydroxy-2-phenylacetate] | 71
CN1CCC(NC(=O)[C@@H](O)c2ccccc2)CC1 [Compound 1042, (S)-2-Hydroxy-N-(1-methylpiperidin-4-yl)-2-phenylacetamide] | 73
CN1CCC(NC(=O)[C@H](O)c2ccccc2)CC1 [Compound 1043, (R)-2-Hydroxy-N-(1-methylpiperidin-4-yl)-2-phenylacetamide] | 72
CN1CCC[C@@H](NC(=O)[C@H](O)c2ccccc2)C1 [Compound 1044, (R)-2-Hydroxy-N-((R)-1-methylpiperidin-3-yl)-2-phenylacetamide] | 65
O=C(OC1CN(Cc2ccccc2)C1)[C@@H](O)c1ccccc1 [Compound 1048, (S)-1-Benzylazetidin-3-yl 2-hydroxy-2-phenylacetate] | 79
O=C(NC1CCN(Cc2ccccc2)CC1)[C@H](O)c1ccccc1 [Compound 1051, (R)-N-(1-Benzylpiperidin-4-yl)-2-hydroxy-2-phenylacetamide] | 59
O=C(NC1CCN(Cc2ccccc2)CC1)[C@@H](O)c1ccccc1 [Compound 1052, (S)-N-(1-Benzylpiperidin-4-yl)-2-hydroxy-2-phenylacetamide] | 73
C[N+]1(C)CCC[C@@H](OC(=O)[C@H](O)c2ccccc2)C1 [Compound 1053, (R)-3-((R)-2-Hydroxy-2-phenylacetoxy)-1,1-dimethylpiperidin-1-ium] | 78
C[N+]1(C)CCC[C@H](OC(=O)[C@H](O)c2ccccc2)C1 [Compound 1054, (S)-3-((R)-2-Hydroxy-2-phenylacetoxy)-1,1-dimethylpiperidin-1-ium] | 74
CC(=O)O[C@@H](C(=O)O[C@H]1CCCN(C)C1)c1ccccc1 [Compound 1056] | 78
CN1CC[C@@H](OC(=O)[C@H](O)c2ccccc2)C1 [Compound 1057, (R)-(R)-1-Methylpyrrolidin-3-yl 2-hydroxy-2-phenylacetate] | 76
CN1CC[C@H](OC(=O)[C@H](O)c2ccccc2)C1 [Compound 1058] | 55
COC(C(=O)O)c1ccccc1 (stereo not shown) [Compound 1060, 2-Methoxy-2-phenylacetic acid] | 78
CO[C@@H](C(=O)N1CCOC[C@@H]1C)c1ccccc1 [Compound 1074, (R)-2-Methoxy-1-((S)-3-methylmorpholino)-2-phenylethanone] | 24
